US11214803B2, “Modulators of YAP1 expression” (Ionis Pharmaceuticals, Inc., priority 2019, dated 2022)
Strand notation (5' to 3'): a small letter for the sugar, then the base; units joined by * are phosphorothioate-linked, units joined directly phosphodiester-linked; [ ] holds rarer units or linkages, { } end groups; capitals alone tell only the bases. k = constrained ethyl (cEt); [5mC] = 5-methylcytosine; d = 2'-deoxy (DNA)

Tested on: Yap1 mRNA
Test: Antisense inhibition of human Yap1 in A-431 cells by cEt gapmers, single dose (Example 3, RTS36584)
Format: cell-based
Procedure, shortened: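 Free uptake, 2,000 nM, ~48 h, A-431 cells. Gapmers: 16-mer 3-10-3 cEt wings, PS backbone, 5-MeC. Readout qRT-PCR, RiboGreen-normalized, % UTC.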

[1] = Table 9, A-431 cells, 5,000 cells per well, free uptake, 2,000 nM, approximately 48 hours, RTS36584, normalized to RIBOGREEN, Yap1 mRNA relative to untreated control cells
[2] = Table 28, Yap1 mRNA as percent of untreated control, 3-10-3 cEt gapmers targeting SEQ ID NO.: 1, and 2
[3] = Table 8, A-431 cells, 5,000 cells per well, free uptake, 2,000 nM, approximately 48 hours, RTS36584, normalized to RIBOGREEN, Yap1 mRNA relative to untreated control cells
[4] = Table 34, Yap1 mRNA as percent of untreated control, 3-10-3 cEt gapmers targeting SEQ ID NO: 1 and 2, single dose
[5] = Table 35, Yap1 mRNA as percent of untreated control, 3-10-3 cEt gapmers targeting SEQ ID NO: 1 and 2, single dose
[6] = Table 26, Yap1 mRNA by 3-10-3 cEt gapmers targeting SEQ ID NO.: 1, and 2, percent of untreated control
[7] = Table 29, Yap1 mRNA as percent of untreated control, 3-10-3 cEt gapmers targeting SEQ ID NO.: 1, and 2
[8] = Table 10, A-431 cells, 5,000 cells per well, free uptake, 2,000 nM oligonucleotide, approx. 48 hours, primer probe set RTS36584, Yap1 mRNA normalized to RIBOGREEN, percent of untreated control

For “958756 (antisense kG*kT*kG*dT*dT*dG*d[5mC]*dA*dT*dG*dA*d[5mC]*dA*kG*k[5mC]*k[5mC]) [Compound 958756]”, the “YAP1 (% UTC)” value [1] was 15 % UTC.

“1074350 (antisense kT*kA*kG*dT*d[5mC]*d[5mC]*dA*d[5mC]*dT*dG*dT*d[5mC]*dT*kG*kT*kA) [compound 1074350]” was tested, and the “YAP1 (% UTC)” value [2] was 14 % UTC.

In the case of “958362 (antisense kA*kG*k[5mC]*dT*d[5mC]*dG*dA*dA*d[5mC]*dA*dT*dG*d[5mC]*kT*kG*kT) [Compound 958362]”, the “YAP1 (% UTC)” value [3] is reported as 58 % UTC.

“1075822 (k[5mC]*kT*kT*dA*dG*dT*dA*dA*dT*dT*dG*d[5mC]*d[5mC]*k[5mC]*kA*kT; antisense) [compound 1075822]” was tested, and the “YAP1 (% UTC)” value [2] was 35 % UTC.

In the case of “1075092 (kT*kT*kA*dA*dA*dA*d[5mC]*dA*dA*d[5mC]*dG*dA*dA*kT*kG*kA; antisense) [compound 1075092]”, the “YAP1 (% UTC)” value [4] is reported as 63 % UTC.

“1075445 (antisense kT*kA*kT*dA*dA*dA*dT*d[5mC]*d[5mC]*dT*d[5mC]*dA*dT*kG*kT*kG) [compound 1075445]” was tested, and the “YAP1 (% UTC)” value [5] was 84 % UTC.

In the case of “1074700 (antisense kG*kT*kA*dA*dG*dA*d[5mC]*dA*dA*dG*dT*d[5mC]*dT*kT*kT*kA) [compound 1074700]”, the “YAP1 (% UTC)” value [6] is reported as 26 % UTC.

With “1075663 (antisense k[5mC]*kT*kA*dA*dA*dT*dA*dG*dG*dT*dG*dG*dT*kT*kA*kT) [compound 1075663]” the “YAP1 (% UTC)” value [7] was 80 % UTC.

In the case of “1075726 (kA*kG*kT*dT*dA*dT*d[5mC]*d[5mC]*dT*dA*dT*d[5mC]*dT*kG*kT*k[5mC]; antisense) [compound 1075726]”, the “YAP1 (% UTC)” value [2] is reported as 14 % UTC.

With “1076212 (k[5mC]*kA*kA*dA*dT*dT*dT*dA*dT*dA*dT*dG*d[5mC]*kT*k[5mC]*k[5mC]; antisense) [compound 1076212]” the “YAP1 (% UTC)” value [4] was 15 % UTC.

With “958540 (kA*kT*kT*d[5mC]*dT*dA*dT*d[5mC]*d[5mC]*dA*dG*dG*dG*kT*k[5mC]*kA; antisense) [Compound 958540]” the “YAP1 (% UTC)” value (Table 13, A-431 cells, 5,000 cells per well, free uptake, 2,000 nM modified oligonucleotide, approx. 48 hours, RTS36584, normalized to RIBOGREEN, Yap1 mRNA relative to untreated control cells) was 8 % UTC.

With “1076492 (kA*kA*kA*dA*dG*dA*dT*dA*d[5mC]*d[5mC]*d[5mC]*d[5mC]*d[5mC]*kA*kG*kT; antisense) [compound 1076492]” the “YAP1 (% UTC)” value [6] was 47 % UTC.

In the case of “958531 (kG*kT*kA*dG*dG*dA*dG*d[5mC]*dA*dA*dG*dT*d[5mC]*kT*kT*kG; antisense) [Compound 958531]”, the “YAP1 (% UTC)” value [1] is reported as 5 % UTC.

In the case of “1075989 (kG*k[5mC]*kT*dA*dA*dA*dA*dT*dT*dA*dA*dG*d[5mC]*kT*kT*k[5mC]; antisense) [compound 1075989]”, the “YAP1 (% UTC)” value [5] is reported as 78 % UTC.

In the case of “958527 (kG*kT*kA*dA*dG*dT*dA*dA*dG*dA*dA*d[5mC]*dA*kA*kT*k[5mC]; antisense) [Compound 958527]”, the “YAP1 (% UTC)” value [8] is reported as 4 % UTC.

For “1074741 (kA*kA*kG*dG*dA*d[5mC]*dT*d[5mC]*dT*dT*dA*dG*dG*kT*k[5mC]*kT; antisense) [compound 1074741]”, the “YAP1 (% UTC)” value [5] was 78 % UTC.

With “958707 (antisense kT*k[5mC]*kA*dA*dT*dG*d[5mC]*dT*dG*dT*dA*dT*d[5mC]*kA*kG*kA) [Compound 958707]” the “YAP1 (% UTC)” value [8] was 23 % UTC.

In the case of “1076559 (kA*kA*k[5mC]*dA*dA*dA*dT*dA*dT*dA*dG*dT*dT*kA*kG*k[5mC]; antisense) [compound 1076559]”, the “YAP1 (% UTC)” value [7] is reported as 74 % UTC.

“1074126 (k[5mC]*kT*kG*dG*d[5mC]*dG*dG*d[5mC]*dT*dG*d[5mC]*dG*d[5mC]*k[5mC]*kT*k[5mC]; antisense) [compound 1074126]” was tested, and the “YAP1 (% UTC)” value [2] was 111 % UTC.

With “1075884 (antisense kA*kT*kT*dA*dG*dT*dA*dA*dT*dG*dA*d[5mC]*dT*kA*kA*k[5mC]) [compound 1075884]” the “YAP1 (% UTC)” value [6] was 116 % UTC.

For “1075662 (antisense kA*kA*kG*dG*dG*dA*dT*dA*d[5mC]*dA*dA*dG*dT*kG*kT*kT) [compound 1075662]”, the “YAP1 (% UTC)” value [2] was 78 % UTC.

With “958370 (antisense k[5mC]*kT*kT*dT*dA*dT*d[5mC]*dT*dA*dG*d[5mC]*dT*dT*kG*kG*kT) [Compound 958370]” the “YAP1 (% UTC)” value [3] was 7 % UTC.
